Assay results: US10112899B2 (ViiV HEALTHCARE UK LIMITED, priority 2014, dated 2018)

System: HIV in the HTLV-1 transformed cell line MT-4
Experiment: organism not typed
Format: cell-based
Conditions: MT4, 96 h, MT-4 cells; luciferase/cell titer glo readout after 96 hours; 10 point dose response

Question: `Cc1c(-c2c(C)c3c(c(C)c2[C@H](OC(C)(C)C)C(=O)O)CN(C(=O)N2CCCCC2)C3)ccc2c1NCCO2` [Example 319, (2S)-2-(tert-butoxy)-2-(4,7-dimethyl-6-(5-methyl-3,4-dihydro-2H-benzo[b][1,4]oxazin-6-yl)-2-(piperidine-1-carbonyl)isoindolin-5-yl)acetic acid] was tested. Which IC50 did it give?
Answer: The IC50 was 4 nM.

Question: How did the IC50 turn out when `Cc1ccc(-c2c(C)c3c(c(C)c2[C@H](OC(C)(C)C)C(=O)O)CN(C(=O)c2ccn(C)n2)C3)cc1` [Example 240, (S)-2-(tert-butoxy)-2-(4,7-dimethyl-2-(1-methyl-1H-pyrazole-3-carbonyl)-6-(p-tolyl)isoindolin-5-yl)acetic acid] was run?
Answer: The IC50 was 121 nM.

Question: With `Cc1ccc(-c2c(C)c3c(c(C)c2[C@H](OC(C)(C)C)C(=O)O)CN(C(=O)N2CC[C@@H](F)C2)C3)cc1` [Example 96, (S)-2-(tert-butoxy)-2-(2-((R)-3-fluoropyrrolidine-1-carbonyl)-4,7-dimethyl-6-(p-tolyl)isoindolin-5-yl)acetic acid] as the compound, how does the IC50 read?
Answer: The IC50 was 14 nM.

Question: For `Cc1ccc(-c2c(C)c3c(c(C)c2[C@H](OC(C)(C)C)C(=O)O)CN(Cc2cccc(N4CCOCC4)c2)C3)cc1` [Example 46, (2S)-2-(tert-butoxy)-2-[4,7-dimethyl-6-(4-methylphenyl)-2-{[3-(morpholin-4-yl)phenyl]methyl}-2,3-dihydro-1H-isoindol-5-yl]acetic acid], which IC50 is on record?
Answer: The IC50 was 4080 nM.

Question: Which IC50 does the source give for `Cc1c(-c2c(C)c3c(c(C)c2[C@H](OC(C)(C)C)C(=O)O)CN(C(=O)N2CCC(F)(F)C2)C3)cc(F)c2c1CCCO2` (atropisomer, axis not shown; (M)) [Example 100, (2S)-2-(tert-Butoxy)-2-(2-(3,3-difluoropyrrolidine-1-carbonyl)-6-(M)-(8-fluoro-5-methylchroman-6-yl)-4,7-dimethylisoindolin-5-yl)acetic acid] here?
Answer: Its IC50 is 5 nM.

Question: `Cc1ccc(-c2c(C)c3c(c(C)c2[C@H](OC(C)(C)C)C(=O)O)CN(C(=O)c2cccc(OC(C)C)c2)C3)cc1` [Example 234, (S)-2-(tert-butoxy)-2-(2-(3-isopropoxybenzoyl)-4,7-dimethyl-6-(p-tolyl)isoindolin-5-yl)acetic acid] was tested. Which IC50 did it give?
Answer: Its IC50 is 26 nM.

Question: Which IC50 does the source give for `Cc1ccc(-c2c(C)c3c(c(C)c2[C@H](OC(C)(C)C)C(=O)O)CN(C(=O)N2CCCCC2)C3)cc1` [Example 7, (S)-2-(tert-butoxy)-2-(4,7-dimethyl-2-(piperidine-1-carbonyl)-6-(p-tolyl)isoindolin-5-yl)acetic acid] here?
Answer: Its IC50 is 4 nM.

Question: With `Cc1ccc(-c2c(C)c3c(c(C)c2[C@H](OC(C)(C)C)C(=O)O)CN(Cc2cccc(Cl)c2)C3)cc1` [Example 45, (2S)-2-(tert-butoxy)-2-{2-[(3-chlorophenyl)methyl]-4,7-dimethyl-6-(4-methylphenyl)-2,3-dihydro-1H-isoindol-5-yl}acetic acid] as the compound, how does the IC50 read?
Answer: Its IC50 is 43 nM.

Question: `COc1ccc(CN2Cc3c(C)c(-c4ccc(C)cc4)c([C@H](OC(C)(C)C)C(=O)O)c(C)c3C2)cc1` [Example 19, (S)-2-(tert-butoxy)-2-(2-(4-methoxybenzyl)-4,7-dimethyl-6-(p-tolyl)isoindolin-5-yl)acetic acid] was tested. Which IC50 did it give?
Answer: Its IC50 is 340 nM.

Question: Which IC50 does the source give for `Cc1ccc(-c2c(C)c3c(c(C)c2[C@H](OC(C)(C)C)C(=O)O)CN(C(=O)c2cc(F)cc(C(N)=O)c2)C3)cc1` [Example 266, (S)-2-(tert-butoxy)-2-(2-(3-carbamoyl-5-fluorobenzoyl)-4,7-dimethyl-6-(p-tolyl)isoindolin-5-yl)acetic acid] here?
Answer: The IC50 was 126 nM.

Question: With `Cc1c(-c2c(C)c3c(c(C)c2[C@H](OC(C)(C)C)C(=O)O)CN(C(=O)c2cc(F)cc(F)c2)C3)cc(F)c2c1CCCO2` (atropisomer, axis not shown; (M)) [Example 170, (S)-2-(tert-butoxy)-2-((M)-2-(3,5-difluorobenzoyl)-6-(8-fluoro-5-methylchroman-6-yl)-4,7-dimethylisoindolin-5-yl)acetic acid] as the compound, how does the IC50 read?
Answer: The IC50 was 2 nM.

Question: With `Cc1ccc(-c2c(C)c3c(c(C)c2[C@H](OC(C)(C)C)C(=O)O)CN(CC(C)C)C3)cc1` [Example 25, (S)-2-(tert-butoxy)-2-(2-isobutyl-4,7-dimethyl-6-(p-tolyl)isoindolin-5-yl)acetic acid] as the compound, how does the IC50 read?
Answer: The IC50 was 946 nM.

Question: How did the IC50 turn out when `Cc1c(-c2c(C)c3c(c(C)c2[C@H](OC(C)(C)C)C(=O)O)CN(C(=O)N2CCCC2)C3)cc(F)c2c1CCCO2` (atropisomer, axis not shown; (M)) [Example 208, (S)-2-(tert-butoxy)-2-((M)-6-(8-fluoro-5-methylchroman-6-yl)-4,7-dimethyl-2-(pyrrolidine-1-carbonyl)isoindolin-5-yl)acetic acid] was run?
Answer: Its IC50 is 4 nM.

Question: How did the IC50 turn out when `Cc1c(-c2c(C)c3c(c(C)c2[C@H](OC(C)(C)C)C(=O)O)CN(C(=O)c2ccc(F)cc2)C3)cc(F)c2c1CCCO2` (atropisomer, axis not shown; (M)) [Example 174, (S)-2-(tert-butoxy)-2-((M)-6-(8-fluoro-5-methylchroman-6-yl)-2-(4-fluorobenzoyl)-4,7-dimethylisoindolin-5-yl)acetic acid] was run?
Answer: The IC50 was 4 nM.

Question: `COc1cccc(C(=O)N2Cc3c(C)c(-c4cc(F)c5c(c4C)CCCO5)c([C@H](OC(C)(C)C)C(=O)O)c(C)c3C2)c1C` (atropisomer, axis not shown; (M)) [Example 139, (S)-2-(tert-butoxy)-2-((M)-6-(8-fluoro-5-methylchroman-6-yl)-2-(3-methoxy-2-methylbenzoyl)-4,7-dimethylisoindolin-5-yl)acetic acid] was tested. Which IC50 did it give?
Answer: Its IC50 is 37 nM.

Question: `Cc1ccc(-c2c(C)c3c(c(C)c2[C@H](OC(C)(C)C)C(=O)O)CN(C(=O)c2cccc4c2ccn4C)C3)cc1` [Example 165, (S)-2-(tert-butoxy)-2-(4,7-dimethyl-2-(1-methyl-1H-indole-4-carbonyl)-6-(p-tolyl)isoindolin-5-yl)acetic acid] was tested. Which IC50 did it give?
Answer: Its IC50 is 108 nM.

Question: For `Cc1ccc(-c2c(C)c3c(c(C)c2[C@H](OC(C)(C)C)C(=O)O)CN(C(=O)C2CCCCC2)C3)cc1` [Example 107, (S)-2-(tert-butoxy)-2-(2-(cyclohexanecarbonyl)-4,7-dimethyl-6-(p-tolyl)isoindolin-5-yl)acetic acid], which IC50 is on record?
Answer: Its IC50 is 7 nM.

Question: `COc1cc(C(=O)N2Cc3c(C)c(-c4cc(F)c5c(c4C)CCCO5)c([C@H](OC(C)(C)C)C(=O)O)c(C)c3C2)ccc1F` (atropisomer, axis not shown; (M)) [Example 180, (S)-2-(tert-butoxy)-2-((M)-2-(4-fluoro-3-methoxybenzoyl)-6-(8-fluoro-5-methylchroman-6-yl)-4,7-dimethylisoindolin-5-yl)acetic acid] was tested. Which IC50 did it give?
Answer: The IC50 was 4 nM.

Question: With `Cc1ccc(-c2c(C)c3c(c(C)c2[C@H](OC(C)(C)C)C(=O)O)CN(C(=O)N2CCCC(C)(C)C2)C3)cc1` [Example 93, (S)-2-(tert-butoxy)-2-(2-(3,3-dimethylpiperidine-1-carbonyl)-4,7-dimethyl-6-(p-tolyl)isoindolin-5-yl)acetic acid] as the compound, how does the IC50 read?
Answer: Its IC50 is 7 nM.

Question: `Cc1ccc(-c2c(C)c3c(c(C)c2[C@H](OC(C)(C)C)C(=O)O)CN(C(=O)CN2CCCCC2)C3)cc1` [Example 106, (S)-2-(tert-butoxy)-2-(4,7-dimethyl-2-(2-(piperidin-1-yl)acetyl)-6-(p-tolyl)isoindolin-5-yl)acetic acid] was tested. Which IC50 did it give?
Answer: Its IC50 is 143 nM.

Question: With `Cc1c(-c2c(C)c3c(c(C)c2[C@H](OC(C)(C)C)C(=O)O)CN(C(=O)N2CCC(F)(F)CC2)C3)cc(F)c2c1CCCO2` (atropisomer, axis not shown; (M)) [Example 213, (S)-2-(tert-butoxy)-2-((M)-2-(4,4-difluoropiperidine-1-carbonyl)-6-(8-fluoro-5-methylchroman-6-yl)-4,7-dimethylisoindolin-5-yl)acetic acid] as the compound, how does the IC50 read?
Answer: The IC50 was 3 nM.

Question: How did the IC50 turn out when `Cc1c(-c2c(C)c3c(c(C)c2[C@H](OC(C)(C)C)C(=O)O)CN(C(=O)NCC(C)(C)C)C3)cc(F)c2c1CCCO2` (atropisomer, axis not shown; (M)) [Example 207, (S)-2-(tert-butoxy)-2-((M)-6-(8-fluoro-5-methylchroman-6-yl)-4,7-dimethyl-2-(neopentylcarbamoyl)isoindolin-5-yl)acetic acid] was run?
Answer: Its IC50 is 4 nM.

Question: With `Cc1c(-c2c(C)c3c(c(C)c2[C@H](OC(C)(C)C)C(=O)O)CN(C(=O)c2cc(F)c(Cl)c(F)c2)C3)cc(F)c2c1CCCO2` (atropisomer, axis not shown; (M)) [Example 175, (S)-2-(tert-butoxy)-2-((M)-2-(4-chloro-3,5-difluorobenzoyl)-6-(8-fluoro-5-methylchroman-6-yl)-4,7-dimethylisoindolin-5-yl)acetic acid] as the compound, how does the IC50 read?
Answer: The IC50 was 5 nM.

Question: For `Cc1ccc(-c2c(C)c3c(c(C)c2[C@H](OC(C)(C)C)C(=O)O)CN(C(=O)N2CCC(F)(F)C2)C3)cc1` [Example 68, (2S)-2-(tert-butoxy)-2-[2-(3,3-difluoropyrrolidine-1-carbonyl)-4,7-dimethyl-6-(4-methylphenyl)-2,3-dihydro-1H-isoindol-5-yl]acetic acid], which IC50 is on record?
Answer: Its IC50 is 8 nM.

Question: How did the IC50 turn out when `Cc1ccc(-c2c(C)c3c(c(C)c2[C@H](OC(C)(C)C)C(=O)O)CN(C(=O)c2ccc(F)c(Cl)c2)C3)cc1` [Example 252, (S)-2-(tert-butoxy)-2-(2-(3-chloro-4-fluorobenzoyl)-4,7-dimethyl-6-(p-tolyl)isoindolin-5-yl)acetic acid] was run?
Answer: Its IC50 is 4 nM.

Question: Which IC50 does the source give for `Cc1c(-c2c(C)c3c(c(C)c2[C@H](OC(C)(C)C)C(=O)O)CN(C(=O)c2cc(F)ccc2F)C3)cc(F)c2c1CCCO2` (atropisomer, axis not shown; (M)) [Example 285, (S)-2-(tert-butoxy)-2-((M)-2-(2,5-difluorobenzoyl)-6-(8-fluoro-5-methylchroman-6-yl)-4,7-dimethylisoindolin-5-yl)acetic acid] here?
Answer: Its IC50 is 2 nM.

Question: `Cc1c2c(c(C)c([C@H](OC(C)(C)C)C(=O)O)c1-c1ccc3c(c1)CCCO3)CN(C(=O)N1CCCCC1)C2` [Example 317, (S)-2-(tert-butoxy)-2-(6-(chroman-6-yl)-4,7-dimethyl-2-(piperidine-1-carbonyl)isoindolin-5-yl)acetic acid] was tested. Which IC50 did it give?
Answer: The IC50 was 3 nM.

Question: Which IC50 does the source give for `COc1cc(F)cc(C(=O)N2Cc3c(C)c(-c4cc(F)c5c(c4C)CCCO5)c([C@H](OC(C)(C)C)C(=O)O)c(C)c3C2)c1` (atropisomer, axis not shown; (M)) [Example 140, (S)-2-(tert-butoxy)-2-((M)-2-(3-fluoro-5-methoxybenzoyl)-6-(8-fluoro-5-methylchroman-6-yl)-4,7-dimethylisoindolin-5-yl)acetic acid] here?
Answer: The IC50 was 2 nM.
